# “And” between values parts separate entries of the source, which are not always exact repeats. Equal values may be shown once. Read-outs that look alike come from different tables or passages of the source.
# Key:
# E. coli ADP-Glc PPase [1] = target: T1, E. coli ADP-Glc PPase (Escherichia coli, UniProt P0A6V1); assay: ADP-Glc synthesis assay (Pi formation, Malachite Green) with Hill-equation kinetic characterization; format: biochemical; details: for IC50: read-out: I 0.5 for AMP
# T1 construct: made in house; host or cells: E. coli BL21 (DE3)
# Protocol: Synthesis of ADP-Glc was assayed by following the formation of Pi (after hydrolysis of pyrophosphate by inorganic pyrophosphatase) as previously described. Unless otherwise stated, a 50 µl reaction mixture contained 100 mM HEPES (pH 8.0), 10 mM MgCl2, 1.5 mM ATP, 0.2 mg/ml bovine serum albumin, 0.5 mU/µl yeast inorganic pyrophosphatase, and the given amount of enzyme. Assays were initiated with 1 mM Glc-1P. If mentioned, a given amount of Pyr, Fru-1,6-P2, and/or AMP was also included. After incubation for 10 min at 37°C, addition of Malachite Green reagent terminated the reaction. The complex formed with the released Pi was measured at 630 nm with an ELISA EMax detector (Molecular Devices). Sodium pyrophosphate was used as standard. One unit of enzyme activity was defined as the amount producing of 1 µmol of product in 1 min under the specified conditions.
# Data of enzyme activity were plotted versus effector concentration. Kinetic parameters from the Hill equation such as Hill coefficient (n H), maximal velocity (V max), as well as the activator substrate or inhibitor concentrations giving 50% of the maximal activation (A 0.5), velocity (S 0.5), or inhibition (I 0.5), were acquired by fitting the data with a non-linear least-squares algorithm using the program Origin 7.0 (OriginLab). Parameters are the mean of at least three independent sets of data, reproducible within ±10%. Sample standard deviations of the data were calculated from the Hill equation fitting by using the Levenberg–Marquardt method.
# E. coli ADP-Glc PPase [2] = target: T1, E. coli ADP-Glc PPase; details: cited from earlier work
# [3] = system: A. tumefaciens ADP-Glc PPase; parameters: method as in PMID 9721178; details: cited from earlier work
# [4] = F. 50 mM Pyr +150 µM Fru-1,6-P2
# [5] = 50 µM AMP and 100 µM Fru-1,6-P2 (Figure 5)
# T1 sequence (P0A6V1 whole entry): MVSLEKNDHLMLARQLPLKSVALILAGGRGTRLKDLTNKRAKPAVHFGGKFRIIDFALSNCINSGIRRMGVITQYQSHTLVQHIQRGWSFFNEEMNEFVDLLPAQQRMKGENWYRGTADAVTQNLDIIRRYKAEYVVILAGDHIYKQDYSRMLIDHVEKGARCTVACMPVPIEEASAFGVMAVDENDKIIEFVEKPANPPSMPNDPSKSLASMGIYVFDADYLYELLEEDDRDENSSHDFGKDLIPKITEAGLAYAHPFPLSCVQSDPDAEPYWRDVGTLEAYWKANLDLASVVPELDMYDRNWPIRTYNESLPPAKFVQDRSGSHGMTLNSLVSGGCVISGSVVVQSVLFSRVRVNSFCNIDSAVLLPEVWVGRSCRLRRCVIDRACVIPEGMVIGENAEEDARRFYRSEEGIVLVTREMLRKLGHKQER
smiles,measurement,setting,value
O=P(O)(O)OC1O[C@H](CO)[C@@H](O)[C@H](O)[C@H]1O (stereo partly drawn) [Glc-1P],Glc-1P S 0.5,E. coli ADP-Glc PPase [1]; A. No effector,0.95 ± 0.07 mM
same,Glc-1P n H,E. coli ADP-Glc PPase [1]; A. No effector,1.1
same,Glc-1P S 0.5,E. coli ADP-Glc PPase [1]; B. 25 mM Pyr,0.57 ± 0.05 mM
same,Glc-1P n H,E. coli ADP-Glc PPase [1]; B. 25 mM Pyr,1.0
same,Glc-1P S 0.5,E. coli ADP-Glc PPase [1]; C. 50 mM Pyr,0.37 ± 0.02 mM
same,Glc-1P n H,E. coli ADP-Glc PPase [1]; C. 50 mM Pyr,0.9
same,Glc-1P S 0.5,"E. coli ADP-Glc PPase [1]; D. 25 mM Pyr +10 µM Fru-1,6-P2",0.23 ± 0.02 mM
same,Glc-1P n H,"E. coli ADP-Glc PPase [1]; D. 25 mM Pyr +10 µM Fru-1,6-P2",1.3
same,Glc-1P S 0.5,"E. coli ADP-Glc PPase [1]; E. 10 µM Fru-1,6-P2",0.77 ± 0.04 mM
same,Glc-1P n H,"E. coli ADP-Glc PPase [1]; E. 10 µM Fru-1,6-P2",1.0
same,Glc-1P S 0.5,E. coli ADP-Glc PPase [1]; [4],0.09 ± 0.01 mM
same,Glc-1P n H,E. coli ADP-Glc PPase [1]; [4],1.1
same,Glc-1P S 0.5,"E. coli ADP-Glc PPase [1]; G. 150 µM Fru-1,6-P2",0.12 ± 0.01 mM
same,Glc-1P n H,"E. coli ADP-Glc PPase [1]; G. 150 µM Fru-1,6-P2",1.2
same,Glc-1P S 0.5,"E. coli ADP-Glc PPase [1]; I. 2 mM Fru-1,6-P2",0.09 ± 0.01 mM
same,Glc-1P n H,"E. coli ADP-Glc PPase [1]; I. 2 mM Fru-1,6-P2",1.3
same,Glc-1P S 0.5,"E. coli ADP-Glc PPase [1]; J. 50 mM Pyr +2 mM Fru-1,6-P2",0.11 ± 0.01 mM
same,Glc-1P n H,"E. coli ADP-Glc PPase [1]; J. 50 mM Pyr +2 mM Fru-1,6-P2",1.0
Nc1ncnc2c1ncn2[C@@H]1O[C@H](COP(=O)(O)OP(=O)(O)OP(=O)(O)O)[C@@H](O)[C@H]1O [ATP-Mg],ATP-Mg S 0.5,E. coli ADP-Glc PPase [1]; A. No effector,6.49 ± 0.21 mM
same,ATP-Mg n H,E. coli ADP-Glc PPase [1]; A. No effector,1.5
same,ATP-Mg S 0.5,E. coli ADP-Glc PPase [1]; B. 25 mM Pyr,1.67 ± 0.08 mM
same,ATP-Mg n H,E. coli ADP-Glc PPase [1]; B. 25 mM Pyr,2.5
same,ATP-Mg S 0.5,E. coli ADP-Glc PPase [1]; C. 50 mM Pyr,1.05 ± 0.06 mM
same,ATP-Mg n H,E. coli ADP-Glc PPase [1]; C. 50 mM Pyr,2.2
same,ATP-Mg S 0.5,"E. coli ADP-Glc PPase [1]; D. 25 mM Pyr +10 µM Fru-1,6-P2",0.99 ± 0.07 mM
same,ATP-Mg n H,"E. coli ADP-Glc PPase [1]; D. 25 mM Pyr +10 µM Fru-1,6-P2",3.6
same,ATP-Mg S 0.5,"E. coli ADP-Glc PPase [1]; E. 10 µM Fru-1,6-P2",5.02 ± 0.25 mM
same,ATP-Mg n H,"E. coli ADP-Glc PPase [1]; E. 10 µM Fru-1,6-P2",2.1
same,ATP-Mg S 0.5,E. coli ADP-Glc PPase [1]; [4],0.37 ± 0.03 mM
same,ATP-Mg n H,E. coli ADP-Glc PPase [1]; [4],2.4
same,ATP-Mg S 0.5,"E. coli ADP-Glc PPase [1]; G. 150 µM Fru-1,6-P2",1.31 ± 0.09 mM
same,ATP-Mg n H,"E. coli ADP-Glc PPase [1]; G. 150 µM Fru-1,6-P2",3.2
same,ATP-Mg S 0.5,"E. coli ADP-Glc PPase [1]; I. 2 mM Fru-1,6-P2",0.43 ± 0.02 mM
same,ATP-Mg n H,"E. coli ADP-Glc PPase [1]; I. 2 mM Fru-1,6-P2",2.1
same,ATP-Mg S 0.5,"E. coli ADP-Glc PPase [1]; J. 50 mM Pyr +2 mM Fru-1,6-P2",0.19 ± 0.02 mM
same,ATP-Mg n H,"E. coli ADP-Glc PPase [1]; J. 50 mM Pyr +2 mM Fru-1,6-P2",1.4
"Cc1ncc(COP(=O)(O)O)c(C=O)c1O [PLP, pyridoxal-5′-phosphate]",EC50,"E. coli ADP-Glc PPase [1]; absence of Pyr (Figure 3B), read-out: A 0.5 for PLP",2.7 µM
same,EC50,"E. coli ADP-Glc PPase [1]; presence of 10 mM Pyr (Figure 3B), read-out: A 0.5 for PLP",1 µM
Nc1ncnc2c1ncn2[C@@H]1O[C@H](COP(=O)(O)O)[C@@H](O)[C@H]1O [AMP],n H of AMP inhibition,"E. coli ADP-Glc PPase [1]; 100 µM Fru-1,6-P2, absence of Pyr",1.7
same,IC50,"E. coli ADP-Glc PPase [1]; 100 µM Fru-1,6-P2, absence of Pyr (Figure 4)",30 µM
same,remaining activity at maximum inhibition,"E. coli ADP-Glc PPase [1]; 100 µM Fru-1,6-P2, both in absence and presence of 20 mM Pyr",around 10%
same,n H of AMP inhibition,"E. coli ADP-Glc PPase [1]; 100 µM Fru-1,6-P2, presence of 20 mM Pyr",2.4
same,IC50,"E. coli ADP-Glc PPase [1]; 100 µM Fru-1,6-P2, presence of 20 mM Pyr (Figure 4)",110 µM
"O=C(COP(=O)(O)O)[C@@H](O)[C@H](O)[C@H](O)COP(=O)(O)O [Fru-1,6-P2, Fructose-1,6-bisphosphate]",improvement of apparent affinity of the enzyme for Pyr,"E. coli ADP-Glc PPase [1]; 30 µM Fru-1,6-P2 (Figure 1)",8.4 fold
same,V max,"E. coli ADP-Glc PPase [1]; E. 10 µM Fru-1,6-P2",6.21±0.19 U/mg
same,V max,"E. coli ADP-Glc PPase [1]; G. 150 µM Fru-1,6-P2",63±4 U/mg
same,V max,"E. coli ADP-Glc PPase [1]; I. 2 mM Fru-1,6-P2",108±6 U/mg
same,EC50,"E. coli ADP-Glc PPase [1]; absence of Pyr (Figure 3A), read-out: A 0.5 for Fru-1,6-P2",120 µM
same,EC50,"E. coli ADP-Glc PPase [1]; as stated in legend of Figure 5, read-out: A 0.5 for Fru-1,6-P2",100 µM
same,decrease of Pyr A 0.5,"E. coli ADP-Glc PPase [1]; at 50 µM Fru-1,6-P2",5 fold
same,EC50,"E. coli ADP-Glc PPase [1]; presence of 2.5 mM Pyr (Figure 3A), read-out: A 0.5 for Fru-1,6-P2",70 µM
same,"A 0.5 for Fru-1,6-P2",E. coli ADP-Glc PPase [2],sub-millimolar range
same,increase of enzyme activity,E. coli ADP-Glc PPase [2],~50 fold
"CC(=O)C(=O)O [Pyr, pyruvate]",Pyr activation,[3],5 fold
same,EC50,[3]; read-out: A 0.5 for Pyr,130 µM
same,activation of the partially inhibited enzyme,E. coli ADP-Glc PPase [1]; [5],4 fold
same,nH of Pyr activation,E. coli ADP-Glc PPase [1]; [5],1.2
same,EC50,"E. coli ADP-Glc PPase [1]; 50 µM AMP and 100 µM Fru-1,6-P2 (Figure 5), read-out: A 0.5 for Pyr",2760 µM
same,"absolute activity (reference for relative activity, Figure 4)","E. coli ADP-Glc PPase [1]; 20 mM Pyr with 100 µM Fru-1,6-P2, control without Pyr 31.2 U/mg",61.8 U/mg
same,decrease of apparent affinity for AMP,"E. coli ADP-Glc PPase [1]; 20 mM Pyr, 100 µM Fru-1,6-P2",3 fold
same,enzyme more active if Pyr was present (relative activities),"E. coli ADP-Glc PPase [1]; 20 mM Pyr, 100 µM Fru-1,6-P2, 0.05–0.15 mM AMP range",up to 3 fold
same,increase of affinity for Glc-1P,"E. coli ADP-Glc PPase [1]; 25 mM Pyr combined with 10 µM Fru-1,6-P2, compared to absence of any effector",4.1 fold
same,lowering of S 0.5 for ATP,"E. coli ADP-Glc PPase [1]; 25 mM Pyr combined with 10 µM Fru-1,6-P2, vs no effector",6.6 fold
same,lowering of S 0.5 for Glc-1P,E. coli ADP-Glc PPase [1]; 25 mM Pyr vs no effector,1.7 fold
same,reduction of S 0.5 for ATP,E. coli ADP-Glc PPase [1]; 25 mM Pyr vs no effector,3.9 fold
same,lowering of S 0.5 for Glc-1P,E. coli ADP-Glc PPase [1]; 50 mM Pyr vs no effector,2.6 fold
same,reduction of S 0.5 for ATP,E. coli ADP-Glc PPase [1]; 50 mM Pyr vs no effector,6.2 fold
same,increase of enzyme activity,"E. coli ADP-Glc PPase [1]; 100 mM Pyr (highest concentration tested), no other effector",3.3 fold
same,V max,E. coli ADP-Glc PPase [1]; B. 25 mM Pyr,3.93±0.21 U/mg
same,V max,E. coli ADP-Glc PPase [1]; C. 50 mM Pyr,5.31±0.19 U/mg
same,V max,"E. coli ADP-Glc PPase [1]; D. 25 mM Pyr +10 µM Fru-1,6-P2",31±2 U/mg
same,V max,E. coli ADP-Glc PPase [1]; [4],104±5 U/mg
same,A 0.5 for Pyr,"E. coli ADP-Glc PPase [1]; Figure 2, at increasing concentrations of Fru-1,6-P2",low mM range
same,V max,"E. coli ADP-Glc PPase [1]; J. 50 mM Pyr +2 mM Fru-1,6-P2",110±5 U/mg
same,increase in V max by Pyr,E. coli ADP-Glc PPase [1]; Pyr alone,~4 fold and 5 fold
same,nH of Pyr activation,E. coli ADP-Glc PPase [1]; absence of any other regulatory effector (Figure 1),1.03
same,EC50,"E. coli ADP-Glc PPase [1]; absence of any other regulatory effector (Figure 1), read-out: A 0.5 for Pyr",25000 µM
same,EC50,"E. coli ADP-Glc PPase [1]; at 50 µM Fru-1,6-P2, read-out: A 0.5 for Pyr",5000 µM
same,maximal activation by Pyr,"E. coli ADP-Glc PPase [1]; in presence of 10 µM or 30 µM Fru-1,6-P2 (Figure 1)",~6 fold
same,EC50,"E. coli ADP-Glc PPase [1]; presence of 1 µM PLP (data not shown), read-out: A 0.5 for Pyr",3700 µM
same,EC50,"E. coli ADP-Glc PPase [2]; weak activation, read-out: A 0.5 for Pyr",> 10000 µM

# — paper PMC4125136, “A Novel Dual Allosteric Activation Mechanism of Escherichia coli ADP-Glucose Pyrophosphorylase: The Role of Pyruvate” (PLoS ONE, 2014)
